Experimental data from patent US12509446B2, “FYN and VEGFR2 kinase inhibitors” (ROTTAPHARM BIOTECH S.R.L., priority 2019, dated 2025).
Where two headings read alike, the source gives them in different places.

Columns and labels:
[1] = biological target: Fyn (Homo sapiens (Human), UniProt P06241); experiment: Z′-LYTE in vitro Fyn kinase activity assay; type: biochemical; settings: ATP 50 μM; read-out: FYN KINASE INHIBITION IC50
Procedure, shortened: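 Z′-LYTE FRET format with full-length active Fyn in 50 mM Hepes pH 7.5, 10 mM MgCl2, 1 mM EGTA, 0.01% Brij-35, 1% DMSO final; 60 minutes at 25° C. Percent phosphorylation from 0% and 100% phosphorylation controls; IC50 by non-linear curve fitting of percent inhibition.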

[2] = biological target: FGFR2 (Homo sapiens (Human), UniProt P21802); settings: read-out: KINASE SELECTIVITY IC50 FGFR2
Protocol: (§1) The assays were performed in Eurofins Cerep (France). The concentration range of the compound under investigation was from 10^−9 M up to 10^−5 M final concentration.

[3] = biological target: Jak3 (Homo sapiens (Human), UniProt P52333); settings: read-out: KINASE SELECTIVITY IC50 Jak3
Protocol: as §1

[4] = biological target: Lyn-A (Homo sapiens (Human), UniProt P07948); settings: read-out: KINASE SELECTIVITY IC50 Lyn-A
Protocol: as §1

[5] = biological target: Src (Homo sapiens (Human), UniProt P12931); settings: read-out: KINASE SELECTIVITY IC50 Src
Protocol: as §1

[6] = biological target: Yes (Homo sapiens (Human), UniProt P07947); settings: read-out: KINASE SELECTIVITY IC50 Yes
Protocol: as §1

[7] = tested on: NF-kB; experiment: Gene reporter (GR) assay, NF-kB activation after TNFα in JB6 Cl 41-5a (P+) cells; type: cell-based, murine; settings: TNFα 2 ng/ml, non toxic concentrations, read-out: Gene reporter (GR) inhibition IC50
Procedure, shortened: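 TNFα (2 ng/ml, 4 h) stimulation followed 1 h compound pre-treatment in NF-kB-luciferase-transfected mouse JB6 (P+) epithelial cells. Reporter luminescence and cell viability were read together, each condition in quadruplicate.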

[8] = biological target: VEGFR (Homo sapiens (Human), UniProt P35968); experiment: Inhibition of VEGF-induced VEGFR (Y1175)-phosphorylation in HUVEC-C cells; type: cell-based; settings: starting from the concentration of 0.01 μM; VEGF 50 ng/ml
Protocol: HUVEC-C cells (Human Umbilical Vein Endothelial Cells from ATCC) were plated at 6×10^4 cells/well in 24 w microplates and grown adherent in medium F12K+0.1 mg/ml Heparin+0.05 mg/ml ECGS+10% FBS at 37° C. with 5% CO2. After 24 h, medium was removed and starvation was induced overnight in medium F12K+0.1 mg/ml Heparin+0.5% FBS (medium starvation). At the end of incubation, treatment of cells was performed by medium replacement and by adding fresh medium starvation containing or not diluent (DMSO 0.1% final concentration), or test compound (range 10^−8 M-10^−5 M). After 1 hour, VEGF stimuli (50 ng/ml final concentration) was added to each sample, with the exception of “basal-no stimulus” sample; plate was then incubated for 5 min at 37° C. with 5% CO2. At the end of the incubation, the medium was removed and cellular lysates, obtained by adding M-PER lysis/Protease/Phosphatase inhibitors cocktail. Then, lysates were transferred into Eppendorf tubes, sonicated and stored at −80° C.
Lysates were analyzed by Western blot for VEGFR phosphorylation (Tyrosine 1175) and total receptor amount determination. Densitometric analysis of sample lanes were performed by ImageQuant TL software (GE Healthcare Life Sciences). Each sample value was normalized by respective actin; resulting data were used to calculate inhibitory effect of compounds with respect to stimuli control (absence of inhibitor).

[9] = tested on: IL-1β; experiment: Gene expression in rat articular chondrocytes under IL-1β stimulation, IL-1β; type: cell-based; settings: Rattus norvegicus, Chondrocyte; 6 h incubation
Procedure, shortened: (§2)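 Primary rat chondrocytes were synchronized in DMEM GlutaMAX I 0.4% 10 days after plating, then co-treated with test compounds (top concentration set by toxicity) and cytokine at 2 ng/ml. TaqMan RT-qPCR relative to 18S was read at 6 h for IL-1β and ADAMTS-5 and at 24 h for MMP3 and MMP13.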

[10] = tested on: COX2; experiment: Gene expression in rat articular chondrocytes under IL-1β stimulation, COX2; type: cell-based; settings: Rattus norvegicus, Chondrocyte; 24 h incubation
[11] = tested on: ADAMTS-5; experiment: Gene expression in rat articular chondrocytes under IL-1β stimulation, ADAMTS-5; type: cell-based; settings: Rattus norvegicus, Chondrocyte; 6 h incubation
Procedure, shortened: as §2

[12] = Pharmacokinetics, oral route, mice; settings: mouse, in vivo, read-out: Absolute bioavailability

Fyn, sequence (P06241 whole entry): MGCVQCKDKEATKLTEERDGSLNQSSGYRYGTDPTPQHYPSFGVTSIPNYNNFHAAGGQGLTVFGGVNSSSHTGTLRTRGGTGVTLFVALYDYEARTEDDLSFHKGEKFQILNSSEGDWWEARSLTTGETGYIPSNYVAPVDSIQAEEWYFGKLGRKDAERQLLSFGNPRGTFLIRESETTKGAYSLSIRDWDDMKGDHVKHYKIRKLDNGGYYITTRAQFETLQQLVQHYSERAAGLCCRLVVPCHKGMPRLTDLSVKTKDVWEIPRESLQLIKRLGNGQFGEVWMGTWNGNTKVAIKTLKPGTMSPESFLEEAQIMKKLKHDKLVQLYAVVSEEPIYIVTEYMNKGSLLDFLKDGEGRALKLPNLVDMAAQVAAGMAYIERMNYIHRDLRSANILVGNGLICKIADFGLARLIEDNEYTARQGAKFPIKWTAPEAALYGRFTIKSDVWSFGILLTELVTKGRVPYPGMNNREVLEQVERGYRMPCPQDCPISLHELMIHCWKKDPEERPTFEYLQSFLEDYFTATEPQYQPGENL
Jak3, sequence (P52333 whole entry): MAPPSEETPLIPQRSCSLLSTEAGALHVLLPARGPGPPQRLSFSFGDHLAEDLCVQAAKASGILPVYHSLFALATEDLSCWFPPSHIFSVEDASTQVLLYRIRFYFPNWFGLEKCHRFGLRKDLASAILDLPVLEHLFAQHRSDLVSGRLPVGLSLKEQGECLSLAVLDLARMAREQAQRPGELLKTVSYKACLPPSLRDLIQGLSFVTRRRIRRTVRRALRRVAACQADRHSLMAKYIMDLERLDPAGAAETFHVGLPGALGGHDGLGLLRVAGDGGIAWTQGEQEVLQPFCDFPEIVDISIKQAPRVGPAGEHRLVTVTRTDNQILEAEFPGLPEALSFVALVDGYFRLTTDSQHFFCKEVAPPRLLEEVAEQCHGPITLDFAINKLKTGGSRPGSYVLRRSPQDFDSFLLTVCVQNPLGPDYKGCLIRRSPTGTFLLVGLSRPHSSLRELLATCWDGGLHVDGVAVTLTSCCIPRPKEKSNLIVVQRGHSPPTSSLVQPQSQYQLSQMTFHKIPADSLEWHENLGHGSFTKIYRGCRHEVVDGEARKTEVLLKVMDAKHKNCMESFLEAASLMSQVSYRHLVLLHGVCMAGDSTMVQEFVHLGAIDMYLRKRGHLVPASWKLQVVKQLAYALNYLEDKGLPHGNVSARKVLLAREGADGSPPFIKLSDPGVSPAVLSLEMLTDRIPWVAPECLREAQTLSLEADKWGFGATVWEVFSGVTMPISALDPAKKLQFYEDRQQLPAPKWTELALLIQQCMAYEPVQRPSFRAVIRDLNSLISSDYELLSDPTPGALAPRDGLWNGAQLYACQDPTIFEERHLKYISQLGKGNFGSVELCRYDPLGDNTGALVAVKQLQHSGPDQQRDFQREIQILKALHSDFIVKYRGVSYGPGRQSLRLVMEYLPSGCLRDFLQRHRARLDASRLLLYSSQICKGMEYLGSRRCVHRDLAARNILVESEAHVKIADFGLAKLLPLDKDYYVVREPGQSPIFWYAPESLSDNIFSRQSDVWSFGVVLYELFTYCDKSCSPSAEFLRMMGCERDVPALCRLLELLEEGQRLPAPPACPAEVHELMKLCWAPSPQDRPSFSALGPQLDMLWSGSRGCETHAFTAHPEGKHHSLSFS
Src, sequence (P12931 whole entry, looked up): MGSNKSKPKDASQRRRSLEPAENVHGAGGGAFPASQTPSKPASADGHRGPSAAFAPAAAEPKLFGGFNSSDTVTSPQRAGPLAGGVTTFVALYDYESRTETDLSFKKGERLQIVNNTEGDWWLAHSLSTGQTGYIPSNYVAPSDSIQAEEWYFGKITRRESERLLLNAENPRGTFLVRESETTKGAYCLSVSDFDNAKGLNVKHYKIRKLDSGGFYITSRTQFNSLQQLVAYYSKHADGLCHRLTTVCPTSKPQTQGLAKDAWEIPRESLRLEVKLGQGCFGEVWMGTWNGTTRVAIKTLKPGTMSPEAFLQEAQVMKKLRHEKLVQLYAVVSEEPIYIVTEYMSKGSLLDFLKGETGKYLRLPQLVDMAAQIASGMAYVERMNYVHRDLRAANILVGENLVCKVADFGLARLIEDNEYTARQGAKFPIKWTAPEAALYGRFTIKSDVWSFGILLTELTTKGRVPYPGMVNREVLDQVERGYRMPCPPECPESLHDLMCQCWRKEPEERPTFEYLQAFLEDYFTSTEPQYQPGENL
VEGFR, sequence (P35968 20-1356): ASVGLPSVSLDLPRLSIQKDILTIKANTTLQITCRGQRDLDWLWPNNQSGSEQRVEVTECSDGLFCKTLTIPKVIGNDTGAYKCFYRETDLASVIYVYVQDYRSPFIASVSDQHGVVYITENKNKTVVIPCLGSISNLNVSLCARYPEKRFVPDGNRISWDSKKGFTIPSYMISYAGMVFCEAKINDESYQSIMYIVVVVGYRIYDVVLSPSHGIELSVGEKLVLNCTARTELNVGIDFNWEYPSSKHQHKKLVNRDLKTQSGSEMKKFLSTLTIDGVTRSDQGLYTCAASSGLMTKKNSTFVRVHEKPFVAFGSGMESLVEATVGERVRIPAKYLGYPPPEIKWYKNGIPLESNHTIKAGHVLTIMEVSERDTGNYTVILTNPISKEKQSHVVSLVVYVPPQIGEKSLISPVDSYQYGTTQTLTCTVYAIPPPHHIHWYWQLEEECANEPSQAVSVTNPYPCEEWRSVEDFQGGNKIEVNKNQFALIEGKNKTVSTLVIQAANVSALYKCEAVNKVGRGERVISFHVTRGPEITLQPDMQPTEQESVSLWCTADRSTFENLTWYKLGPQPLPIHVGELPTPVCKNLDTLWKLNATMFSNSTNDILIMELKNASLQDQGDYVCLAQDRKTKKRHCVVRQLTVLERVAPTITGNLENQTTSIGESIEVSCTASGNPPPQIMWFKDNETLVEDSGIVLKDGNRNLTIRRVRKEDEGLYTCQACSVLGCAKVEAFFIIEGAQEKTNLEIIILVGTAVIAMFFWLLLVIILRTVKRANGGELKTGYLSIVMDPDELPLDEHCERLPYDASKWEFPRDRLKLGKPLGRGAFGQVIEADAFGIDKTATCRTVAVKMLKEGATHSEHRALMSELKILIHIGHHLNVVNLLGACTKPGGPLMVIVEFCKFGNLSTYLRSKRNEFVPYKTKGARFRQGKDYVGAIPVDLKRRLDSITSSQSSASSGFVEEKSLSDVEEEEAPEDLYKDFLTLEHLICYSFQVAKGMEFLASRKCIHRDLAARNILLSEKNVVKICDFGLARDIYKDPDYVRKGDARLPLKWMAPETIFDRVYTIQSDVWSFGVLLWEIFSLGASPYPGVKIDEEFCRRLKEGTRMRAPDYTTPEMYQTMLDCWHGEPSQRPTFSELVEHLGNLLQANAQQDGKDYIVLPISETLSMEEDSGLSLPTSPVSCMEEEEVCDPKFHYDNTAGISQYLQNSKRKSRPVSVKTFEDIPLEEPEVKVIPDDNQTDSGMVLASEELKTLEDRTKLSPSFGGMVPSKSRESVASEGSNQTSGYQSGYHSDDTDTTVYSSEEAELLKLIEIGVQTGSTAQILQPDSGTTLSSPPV
FGFR2, sequence (P21802 22-821): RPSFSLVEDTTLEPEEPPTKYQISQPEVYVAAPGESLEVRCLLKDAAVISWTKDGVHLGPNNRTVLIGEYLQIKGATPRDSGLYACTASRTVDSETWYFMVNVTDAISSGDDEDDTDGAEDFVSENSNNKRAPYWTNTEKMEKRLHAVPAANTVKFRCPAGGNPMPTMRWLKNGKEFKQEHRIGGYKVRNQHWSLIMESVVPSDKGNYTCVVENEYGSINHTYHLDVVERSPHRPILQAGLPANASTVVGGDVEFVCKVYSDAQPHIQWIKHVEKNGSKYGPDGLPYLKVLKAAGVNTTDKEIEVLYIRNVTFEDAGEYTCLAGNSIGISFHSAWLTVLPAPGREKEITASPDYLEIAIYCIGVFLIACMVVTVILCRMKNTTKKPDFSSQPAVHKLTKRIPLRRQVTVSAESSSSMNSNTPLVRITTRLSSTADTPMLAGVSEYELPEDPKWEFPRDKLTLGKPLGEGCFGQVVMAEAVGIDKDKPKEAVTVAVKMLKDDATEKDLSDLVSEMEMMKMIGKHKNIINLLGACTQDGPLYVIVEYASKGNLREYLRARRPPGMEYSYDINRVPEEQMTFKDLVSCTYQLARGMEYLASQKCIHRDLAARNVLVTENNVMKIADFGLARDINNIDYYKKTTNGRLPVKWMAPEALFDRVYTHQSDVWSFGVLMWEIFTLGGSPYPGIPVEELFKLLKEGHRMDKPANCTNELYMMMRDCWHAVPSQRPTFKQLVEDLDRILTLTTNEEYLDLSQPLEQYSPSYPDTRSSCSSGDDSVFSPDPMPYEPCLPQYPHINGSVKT
Yes, sequence (P07947 whole entry): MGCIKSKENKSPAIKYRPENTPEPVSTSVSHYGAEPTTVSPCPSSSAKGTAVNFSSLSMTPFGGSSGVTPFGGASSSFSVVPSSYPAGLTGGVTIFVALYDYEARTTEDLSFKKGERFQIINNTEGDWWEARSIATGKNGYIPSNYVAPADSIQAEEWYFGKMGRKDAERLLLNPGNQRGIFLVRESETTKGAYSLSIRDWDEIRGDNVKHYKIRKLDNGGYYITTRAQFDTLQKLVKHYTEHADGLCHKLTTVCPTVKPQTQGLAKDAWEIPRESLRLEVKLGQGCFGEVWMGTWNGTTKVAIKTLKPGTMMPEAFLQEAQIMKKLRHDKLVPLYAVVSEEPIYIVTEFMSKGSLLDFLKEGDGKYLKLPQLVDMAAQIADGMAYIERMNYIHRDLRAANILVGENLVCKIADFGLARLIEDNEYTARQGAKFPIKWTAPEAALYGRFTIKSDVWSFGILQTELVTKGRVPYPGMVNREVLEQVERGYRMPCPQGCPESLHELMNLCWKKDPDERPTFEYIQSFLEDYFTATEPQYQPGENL

## Cc1ccc(NC(=O)c2cccc(C(F)(F)F)c2)cc1CCc1cc(Nc2cnccn2)[nH]n1 [Compound 3, N-(4-methyl-3-(2-(5-(pyrazin-2-ylamino)-1H-pyrazol-3-yl)ethyl)phenyl)-3-(trifluoromethyl)benzamide]
[1]
  IC50: 9 nM
[2]
  IC50: 3000 nM
[3]
  IC50: 1760 nM
[4]
  IC50: 59 nM
[5]
  IC50: 370 nM
[6]
  IC50: 17 nM
[7]; Mus musculus, JB6 Cl 41-5a
  IC50: < 250 nM
[7]
  IC50: 236 nM
[8]
  Inhibitory activity on VEGFR-phosphorylation at Y1175 residue: complete inhibitory activity
[9]
  IC50: 2 nM
[10]
  IC50: 187 nM
[11]
  IC50: 34 nM
[12]
  bioavailability: ~12%
